From patent US20260232006A1, “EMULSIONS FOR NICOTINE ENCAPSULATION” (NICOVENTURES TRADING LIMITED, priority 2023, published 2026)

How the values were obtained:
[1] = cited from earlier work
[2] = in mixture of mono- and diglycerides of capric and caprylic acid (Capmul MCM); 48 h at 30° C.
Experimental: Samples were blanketed with nitrogen, sonicated for 30 min, then placed in a thermostatic orbital shaker and continuously shaken at 300 rpm for 48 h at 30° C.

| Compound | solubility in water [1] | solubility in fats and alcohols [1] | chemical stability ([1]; isolated, isomerizes to trans-bixin) | highest nicotine benzoate solubility in oil without sedimentation [2] |
| --- | --- | --- | --- | --- |
| CC(/C=C/C=C(C)/C=C/C(=O)O)=C\C=C\C=C(C)\C=C\C=C(C)\C=C\C(=O)O (stereo in doubt) [norbixin, (2E,4E,6E,8E,10E,12E,14E,16E,18E)-4,8,13,17-tetramethylicosa-2,4,6,8,10,12,14,16,18-nonaenedioic acid] | water-soluble | – | – | – |
| COC(=O)/C=C/C(C)=C\C=C\C(C)=C\C=C\C=C(C)\C=C\C=C(C)\C=C\C(=O)O [bixin, (2E,4E,6E,8E,10E,12E,14E,16Z,18E)-20-methoxy-4,8,13,17-tetramethyl-20-oxoicosa-2,4,6,8,10,12,14,16,18-nonaenoic acid] | insoluble | soluble | chemically unstable when isolated | – |
| CN1CCCC1c1cccnc1.O=C(O)c1ccccc1 (centres unmarked) [nicotine benzoate] | – | – | – | 30 % by weight |
